Experimental data reported in doi:10.1101/2024.08.13.607848, “Bibacillin 1: A two-component lantibiotic from Bacillus thuringiensis” (bioRxiv, 2024).

Experiments:
rabbit erythrocytes = format: cell-based; conditions: total peptide concentration 2 µM; 1 h at 37 °C; hemoglobin release, absorbance at 415 nm; mixture 1:1
Protocol: Solution phase hemolysis assays were conducted as described previously.[35]
Fig. S2. […] A) Hemoglobin release […]
erythrocytes were treated with 0.03% v/v triton X-100. Negative control contained only buffer. A total peptide concentration of 2 µM was used in each case. B) Extent of hemolysis after treating freshly washed rabbit erythrocytes with 1:1 of CylLS”:CylLL” at 37 ̊C for 1 h. Data was fit to a […]
(1 picture or pasted object on this page, not shown here)

[1] = test system: Micrococcus luteus ATCC 4698; test: Agar diffusion assay using bacteria; format: cell-based
Protocol: Fig. 4. […] Cytolysin was used as a positive control.
Overnight cultures of bacteria were prepared according to Table S1. The OD600 of each culture was determined and adjusted to a value of 1 using the appropriate growth media. Molten growth media containing 0.7% agar was cooled to 50 °C and inoculated with 50 μL of adjusted overnight culture for every 5 mL of molten growth media. The inoculated molten growth media was immediately poured onto a pre-warmed agar (2%) plate prepared using the same media. The plate was allowed to set for 30 min at room temperature before adding 3 μL of peptide stock diluted in PBS to 100 μM. The deposited peptide solutions were allowed to stand on the agar plate for 30 min before incubation for 16–36 h at the optimum growth temperature until the desired cell density was achieved.

[2] = In vitro pore formation assay, pyranine-encapsulated liposomes; conditions: total peptide concentration 5 μM; DOPC liposomes containing or lacking 0.1 mol% lipid II; mixture 1:1
Protocol: To investigate the lipid II-dependence of the pore formation activity of bibacillin 1, pyranine-encapsulated liposomes were prepared containing or lacking lipid II and pore formation was monitored via pH-dependent pyranine fluorescence.[70]
This assay was conducted as described elsewhere.[70]

[3] = SDS-PAGE analysis of oligomerization; format: physicochemical; conditions: in the presence of SDS
Excerpt: Using agar plates seeded with E. faecalis pXL110 and the colorimetric LacZ substrate X-gal, LacZ expression was visualized. Consistent with previous reports,[43] […] Comparing the structures of CylLS” and Bib1β (Fig. 1A and 2B), we speculated that the presence of Ser16 in Bib1β rather than the hydrophobic residues present in CylLS” in this region might interfere with CylR1 binding possibly due to hydrophobic mismatching. […] To determine whether bibacillin 1 could quorum sense through an aggregation mechanism, the aggregation propensity of bibacillin 1 was analyzed using SDS-PAGE and dynamic light scattering (DLS). […] Since SDS can influence aggregation, the aggregation of bibacillin 1 was further investigated under SDS-free conditions using DLS (Fig. 6B). Bib1α exists in solution as aggregates that are 159 nm in diameter on average (PDI = 0.224) and Bib1β forms aggregates that are 291 nm in diameter on average (PDI = 0.384). […] Confirmation of this hypothesis will require in vitro studies with Bib1R1/R2.

SMILES | Hemolysis in solution phase assay (rabbit erythrocytes) | Growth inhibition in agar diffusion assay [1] | Pore formation activity in liposomes, pyranine fluorescence [2] | Oligomeric state by SDS-PAGE [3]
C=C(NC(=O)[C@H](C)NC(=O)[C@@H]1CS[C@H](C)[C@H](N)C(=O)NC(=C)C(=O)N2CCC[C@H]2C(=O)N[C@@H](C)C(=O)N1)C(=O)N[C@@H](C)C(=O)N[C@@H](CCSC)C(=O)N[C@@H](CC(C)C)C(=O)N[C@@H](Cc1ccc(O)cc1)C(=O)N[C@@H](CC(C)C)C(=O)N[C@@H](CCC(N)=O)C(=O)NCC(=O)N[C@H](C(=O)NC(=CC)C(=O)N[C@H](C(=O)NC(=C)C(=O)N[C@@H](CC(C)C)C(=O)NCC(=O)N[C@@H](CC(C)C)C(=O)N[C@@H]1CSC[C@@H](C(=O)O)NC(=O)[C@H](Cc2c[nH]cn2)NC(=O)[C@H](CCSC)NC(=O)[C@H](CCCNC(=N)N)NC1=O)C(C)C)C(C)C [Bib1α] | did not induce hemolysis | weak individual activity | pore formation activity that was somewhat enhanced by the addition of lipid II | oligomeric in the presence of SDS
CC=C1NC(=O)[C@@H](N)[C@@H](C)SC[C@@H](C(=O)N[C@@H](C)C(=O)N[C@H](C(=O)NCC(=O)NCC(=O)NCC(=O)N[C@@H](CC(C)C)C(=O)N[C@@H](C)C(=O)N[C@@H](CC(C)C)C(=O)NCC(=O)N[C@@H](Cc2ccccc2)C(=O)N[C@@H](CO)C(=O)N[C@H](C(=O)N[C@@H]2CSC[C@@H](C(=O)O)NC(=O)[C@H](Cc3ccc(O)cc3)NC(=O)[C@H]([C@@H](C)CC)NC(=O)[C@H](CCCCN)NC2=O)[C@@H](C)CC)[C@@H](C)CC)NC(=O)[C@H](C(C)C)NC(=O)[C@@H]2CCCN2C1=O [Bib1β] | did not induce hemolysis | weak individual activity |  | oligomeric in the presence of SDS
